This passage reports melting point results from a melting point compilation (Tetko et al.; mined from patent text by program, amines drawn as free bases though some values may be those of a salt).

In the case of `NC(=O)N1CC(Oc2ccc(Cl)cc2)C1`, the melting point was in the range of 187 to 188 °C.
Then `CCCc1c(OCCCCCC(=O)c2ccc(OC)c(OC)c2)ccc(C(=O)OC)c1O`, with 117 to 119 °C.
The value for `CC(CCc1ccccc1)NC1CCC(c2ccc(O)cc2)CC1` (racemic) was 44 to 49 °C; that for `CC1NC(=O)NN=C1c1ccccc1O` (stereo unspecified) was 257 to 261 °C.
The value for `N#Cc1n[nH]c2nc(N3CCCNCC3)ccc12` was 196 to 197 °C.
Compound `CCOC(=O)c1cc(C#N)c(=O)[nH]c1C` came in with a melting point of 208 to 210 °C.
Then `Cc1cccc(C(=O)NN2NC=CC2C(=O)NCC(O)c2ccc(C(F)(F)F)cc2)n1` (stereo unspecified), with 250 to 251 °C; and `CC(=O)c1ccccc1NC(=O)C(Cl)(Cl)Cl`, with 113 °C; and `CC(C)n1c(SC(F)(F)C(F)F)nc(-c2ccc(F)cc2)c1-c1ccc(F)cc1`, with 94 to 103 °C.
The value for `O=C(CCCCCN1C(=O)c2ccc([N+](=O)[O-])cc2C1=O)NO` was 130 to 132 °C; that for `CC(C)N(C(=O)COc1c(F)cc(-c2ccc(C(=O)O)cc2)cc1[N+](=O)[O-])C(C)C` was 202 °C.
Consider `COc1nc(NC(=N)SC)nc(OC)n1`, for which the melting point was 94 to 100 °C.
The compound `CCOC(=O)c1csc(C2OC(CO)C(O)C2O)n1` (stereo unspecified) showed a melting point of 62 to 64 °C.
The value for `CCOC(=O)/C(=N\OCC#N)c1csc(N)n1` was 167 to 168 °C; that for `CCCc1c(CSc2nnc(SCCCS(=O)CC(=O)O)s2)ccc(C(C)=O)c1O` (stereo unspecified) was 107 to 110 °C; that for `COc1ccc(C(=O)OCc2ccccc2)cc1NC(=S)Nc1cc(Cl)cc(Cl)c1` was 144 to 145 °C.
The value for `CS(=O)(=O)c1c(Cl)nc(N)nc1Cl` was 275 °C; that for `COc1cccc(CC(=O)O)c1OCCCc1cn(-c2ccc(C#N)cn2)nc1C(C)C` was 144 to 145 °C.
The value for `CCOCc1nc2cnc3cc(Br)ccc3c2n1C[C@@H]1COC(C)(C)O1` was 90 to 91 °C.
Consider `NC(=O)c1ccc2c(c1)C(=O)N1CCC[C@H]1CO2`, for which the melting point fell in the range of 287 to 290 °C.
The compound `O=C1c2ccccc2C(=O)N1Cc1ccc(/C=C/C(c2cc(Cl)c(Cl)c(Cl)c2)C(F)(F)F)c2ccccc12` (stereo unspecified) had a melting point of 158 to 160 °C.
The value for `N#Cc1cc(F)ccc1O` was 121 to 122 °C; that for `Cc1nc(-n2cc(CCCc3ccccc3)nn2)sc1C(=O)NCc1cccnc1` was 108 to 110 °C; that for `CC1(C)OC(=S)Nc2c(Br)cc(-c3cc(F)cc(C#N)c3)cc21` was 219 to 220 °C.
The value for `COc1cc(C(=O)O)c(-n2c3ccccc3c3ccccc32)cc1C(=O)O` was 298 °C; that for `COc1cc(OC)cc(N2CCN(C(=O)Nc3cc(-c4ccccn4)nc4ccccc34)CC2)c1` was 97 to 98 °C; that for `CCOC(=O)C(NC(=O)c1ccc(C)c(F)c1)C(=O)OCC` was 102 to 103 °C.
Regarding `CCOC(=O)c1c2ccc(Cl)cc2c(-c2ccccc2)n1C`, the melting point lay within 94 to 96 °C.
Then `Cc1cn(C2CC2)c(=O)nc1NS(=O)(=O)c1ccc(N)cc1`, with 134 to 136 °C; and `CCOC(=O)C1=C(C)NC(N)=C(C(=O)OCC)C1c1ccco1` (stereo unspecified), with 183 °C.
As to `CC(C)Oc1cc(CCCOc2nn(C)cc2CC(=O)O)n(Cc2ccc(Cl)cc2Cl)n1`, the melting point was 96 to 97 °C.
In turn, `O=S(=O)(c1ccc(I)cc1)N1CCCC(c2ccc(Cl)c(C(F)(F)F)c2)=N1` had a melting point of 153 to 154 °C.
In the case of `Cc1ccncc1Cn1nnnc1-c1ccc(Cl)c(Cl)c1`, the melting point was 167 to 169 °C.
The value for `CC(=N)NC(=O)Nc1ccc(C#N)c(Cl)c1` was 182 to 183 °C; that for `CC(C)(C)c1cc(C=Cc2cc(C=Cc3cc(C(C)(C)C)cc(C(C)(C)C)c3)cc(CO)c2)cc(C(C)(C)C)c1` was 226 to 228 °C.
The value for `CC(c1ccc2c(c1)C(=O)c1ccccc1C2=O)N1CCN(C)CC1` (stereo unspecified) was 98.9 to 102 °C.
